Laboratory results: US20250163038A1, “CBL-B MODULATORS AND USES THEREOF” (Nimbus Clio, Inc., priority 2021, published 2025)
Read-outs that look alike come from different tables or passages of the source.

What was measured:
[1] = target: T1, Recombinant human c-Cbl (aa 47-435) (Homo sapiens, UniProt P22681); assay: c-Cbl Biochemical Assay (TR-FRET)
T1 sequence (P22681 47-435): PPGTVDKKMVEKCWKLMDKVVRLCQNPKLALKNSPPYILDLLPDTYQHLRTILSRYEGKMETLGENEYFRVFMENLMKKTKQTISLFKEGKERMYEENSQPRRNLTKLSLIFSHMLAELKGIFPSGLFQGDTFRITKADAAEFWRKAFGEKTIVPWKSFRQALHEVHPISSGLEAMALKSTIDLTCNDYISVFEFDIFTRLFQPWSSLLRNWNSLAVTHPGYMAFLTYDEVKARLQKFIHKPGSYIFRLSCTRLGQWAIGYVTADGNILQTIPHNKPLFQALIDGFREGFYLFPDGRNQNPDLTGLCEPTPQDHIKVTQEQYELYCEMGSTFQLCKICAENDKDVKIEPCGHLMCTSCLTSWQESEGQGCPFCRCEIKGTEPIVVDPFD

[2] = system: Jurkat (clone E6-1) cells with NFAT luciferase reporter; assay: Jurkat reporter assay (NFAT Luciferase); format: cell-based; conditions: Homo sapiens; Jurkat NFAT luciferase reporter cells, anti-CD3 stimulation, 6 hr; read-out: Jurkat NFAT EC50
[3] = target: Recombinant human Cbl-b (aa 36-427) (Homo sapiens, UniProt Q13191); assay: Cbl-b Biochemical Assay (TR-FRET)
Chain of Recombinant human Cbl-b (aa 36-427) (Q13191 36-427): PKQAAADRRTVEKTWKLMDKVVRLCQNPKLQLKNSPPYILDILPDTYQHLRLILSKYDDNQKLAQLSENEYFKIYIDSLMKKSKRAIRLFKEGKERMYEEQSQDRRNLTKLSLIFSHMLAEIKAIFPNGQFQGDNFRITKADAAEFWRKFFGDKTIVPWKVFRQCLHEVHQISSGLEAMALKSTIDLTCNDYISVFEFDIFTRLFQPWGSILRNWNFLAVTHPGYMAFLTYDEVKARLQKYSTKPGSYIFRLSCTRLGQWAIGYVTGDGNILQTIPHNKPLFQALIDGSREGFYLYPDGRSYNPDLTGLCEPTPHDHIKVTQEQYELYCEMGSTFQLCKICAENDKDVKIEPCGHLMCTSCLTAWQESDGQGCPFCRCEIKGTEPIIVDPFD

[4] = hc-Cbl Biochemical Assay (TR-FRET), read-out: TR-FRET hcCbl IC50

Compound	IC50 [1, 4]	EC50 [2]	IC50 ([3]; read-out: TR-FRET hCbl-b IC50)	IC50 [1]	IC50 [3]
Cn1cnnc1-c1cc(Cl)ccc1-c1ccnc(-c2nc3cc(CN[C@@H]4CCC[C@@H]4O)cc(C(F)(F)F)c3o2)c1 [AER-8, (1S,2R)-2-(((2-(4-(4-Chloro-2-(4-methyl-4H-1,2,4-triazol-3-yl)phenyl)pyridin-2-yl)-7-(trifluoromethyl)benzo[d]oxazol-5-yl)methyl)amino)cyclopentan-1-ol]	< 200 nM	< 200 nM	< 200 nM		
Cc1cc(CO)cc2nc(-c3cc(-c4ccc(F)cc4-c4nncn4C)cc(C4CC4)n3)oc12 [AET-1, (2-{6-Cyclopropyl-4-[4-fluoro-2-(4-methyl-1,2,4-triazol-3-yl)phenyl]pyridin-2-yl}-7-methyl-1,3-benzoxazol-5-yl)methanol]	1000 to 10000 nM	1000 to 10000 nM	200 to 1000 nM		
Cc1cc(CN[C@@H]2CCC[C@@H]2O)cc2nc(-c3cc(-c4ccc(F)cc4-c4nncn4C)cc(C4CC4)n3)oc12 [AEU-2, (1S,2R)-2-{[(2-{6-Cyclopropyl-4-[4-fluoro-2-(4-methyl-1,2,4-triazol-3-yl)phenyl]pyridin-2-yl}-7-methyl-1,3-benzoxazol-5-yl)methyl]amino}cyclopentan-1-ol]	< 200 nM	< 200 nM	< 200 nM		
Cc1cc(CNCC2(O)CCC2)cc2nc(-c3cc(-c4ccc(F)cc4-c4nncn4C)cc(C4CC4)n3)oc12 [AEV-1, 1-({[(2-{6-Cyclopropyl-4-[4-fluoro-2-(4-methyl-1,2,4-triazol-3-yl)phenyl]pyridin-2-yl}-7-methyl-1,3-benzoxazol-5-yl)methyl]amino}methyl)cyclobutan-1-ol]	< 200 nM	< 200 nM	< 200 nM		
CN(Cc1cc(C(F)(F)F)c2oc(-c3cc(-c4ccc(F)cc4-c4nncn4C)cc(C4CC4)n3)nc2c1)[C@@H]1CCC[C@@H]1O [AEW-1, (1S, 2R)-2-{1[(2-{6-Cyclopropyl-4-[4-fluoro-2-(4-methyl-1,2,4-triazol-3-yl)phenyl]pyridin-2-yl}-7-(trifluoromethyl)-1,3-benzoxazol-5-yl)methyl](methyl)amino}cyclopentan-1-ol]	< 200 nM	< 200 nM	< 200 nM		
COc1cc(CO)cc2nc(-c3cc(-c4ccc(F)cc4-c4nncn4C)cc(C4CC4)n3)oc12 [AEX-2, (2-{6-Cyclopropyl-4-[4-fluoro-2-(4-methyl-1,2,4-triazol-3-yl)phenyl]pyridin-2-yl}-7-methoxy-1,3-benzoxazol-5-yl)methanol]	1000 to 10000 nM	1000 to 10000 nM	200 to 1000 nM		
COc1cc(CN[C@@H]2CCC[C@@H]2O)cc2nc(-c3cc(-c4ccc(F)cc4-c4nncn4C)cc(C4CC4)n3)oc12 [AEY-2]	< 200 nM	< 200 nM	< 200 nM		
COCCNCc1cc(C)c2oc(-c3cc(-c4ccc(F)cc4-c4nncn4C)cc(C4CC4)n3)nc2c1 [AEZ-1, [(2-{6-Cyclopropyl-4-[4-fluoro-2-(4-methyl-1,2,4-triazol-3-yl)phenyl]pyridin-2-yl}-7-methyl-1,3-benzoxazol-5-yl)methyl](2-methoxyethyl)amine]	< 200 nM	< 200 nM	< 200 nM		
Cn1cnnc1-c1cc(F)ccc1-c1cccc(-c2nc3cc(CN4CC(C)(O)C4)cc(C(F)(F)F)c3o2)c1 [AF-2, 1-((2-(4′-Fluoro-2′-(4-methyl-4H-1,2,4-triazol-3-yl)-[1,1′-biphenyl]-3-yl)-7-(trifluoromethyl)benzo[d]oxazol-5-yl)methyl)-3-methylazetidin-3-ol]	1000 to 10000 nM	200 to 1000 nM	< 200 nM		
Cn1cnnc1-c1cc(F)ccc1-c1cc(-c2nc3cc(CO)cc(F)c3o2)nc(C2CC2)c1 [AFA-2, (2-{6-Cyclopropyl-4-[4-fluoro-2-(4-methyl-1,2,4-triazol-3-yl)phenyl]pyridin-2-yl}-7-fluoro-1,3-benzoxazol-5-yl)methanol]	200 to 1000 nM	1000 to 10000 nM	200 to 1000 nM		
Cn1cnnc1-c1cc(F)ccc1-c1cc(-c2nc3cc(CN[C@@H]4CCC[C@@H]4O)cc(F)c3o2)nc(C2CC2)c1 [AFB-2, (1S,2R)-2-{[(2-{6-Cyclopropyl-4-[4-fluoro-2-(4-methyl-1,2,4-triazol-3-yl)phenyl]pyridin-2-yl}-7-fluoro-1,3-benzoxazol-5-yl)methyl]amino}cyclopentan-1-ol]		< 200 nM		< 200 nM	< 200 nM
Cn1cnnc1-c1cc(F)ccc1-c1cc(-c2nc3cc(CNCC4(O)CCC4)ccc3o2)nc(C2CC2)c1 [AFC-1, 1-({[(2-{6-Cyclopropyl-4-[4-fluoro-2-(4-methyl-1,2,4-triazol-3-yl)phenyl]pyridin-2-yl}-1,3-benzoxazol-5-yl)methyl]amino}methyl)cyclobutan-1-ol]	< 200 nM	< 200 nM	< 200 nM		
Cn1cnnc1-c1cc(F)ccc1-c1cc(-c2nc3cc(CNCC(C)(C)O)ccc3o2)nc(C2CC2)c1 [AFD-1, 1-{[(2-{6-Cyclopropyl-4-[4-fluoro-2-(4-methyl-1,2,4-triazol-3-yl)phenyl]pyridin-2-yl}-1,3-benzoxazol-5-yl)methyl]amino}-2-methylpropan-2-ol]	< 200 nM	< 200 nM	< 200 nM		
Cn1cnnc1-c1cc(F)ccc1-c1cc(-c2nc3cc(CNCC4(O)CCCC4)ccc3o2)nc(C2CC2)c1 [AFE-1, 1-({[(2-{6-Cyclopropyl-4-[4-fluoro-2-(4-methyl-1,2,4-triazol-3-yl)phenyl]pyridin-2-yl}-1,3-benzoxazol-5-yl)methyl]amino}methyl)cyclopentan-1-ol]	< 200 nM	< 200 nM	< 200 nM		
Cc1cc(CNCC2CCC2)cc2nc(-c3cc(-c4ccc(F)cc4-c4nncn4C)cc(C4CC4)n3)oc12 [AFF-1, 1-Cyclobutyl-N-((2-(6-cyclopropyl-4-(4-fluoro-2-(4-methyl-4H-1,2,4-triazol-3-yl)phenyl)pyridin-2-yl)-7-methylbenzo[d]oxazol-5-yl)methyl)methanamine]	< 200 nM	< 200 nM	< 200 nM		
Cc1cc(CN(C)[C@@H]2CCC[C@@H]2O)cc2nc(-c3cc(-c4ccc(F)cc4-c4nncn4C)cc(C4CC4)n3)oc12 [AFG-1, (1S,2R)-2-(((2-(6-Cyclopropyl-4-(4-fluoro-2-(4-methyl-4H-1,2,4-triazol-3-yl)phenyl)pyridin-2-yl)-7-methylbenzo[d]oxazol-5-yl)methyl)(methyl)amino)cyclopentan-1-ol]		< 200 nM		< 200 nM	< 200 nM
Cc1cc(CN(C)CC2(O)CCC2)cc2nc(-c3cc(-c4ccc(F)cc4-c4nncn4C)cc(C4CC4)n3)oc12 [AFH-2, 1-({[(2-{6-Cyclopropyl-4-[4-fluoro-2-(4-methyl-1,2,4-triazol-3-yl)phenyl]pyridin-2-yl}-7-methyl-1,3-benzoxazol-5-yl)methyl](methyl)amino}methyl)cyclobutan-1-ol]	200 to 1000 nM	200 to 1000 nM	< 200 nM		
Cn1cnnc1-c1cc(F)ccc1-c1cc(-c2nc3cc(CNCC4(O)CCC4)cc(F)c3o2)nc(C2CC2)c1 [AFI-1, 1-({[(2-{6-Cyclopropyl-4-[4-fluoro-2-(4-methyl-1,2,4-triazol-3-yl)phenyl]pyridin-2-yl}-7-fluoro-1,3-benzoxazol-5-yl)methyl]amino}methyl)cyclobutan-1-ol]	< 200 nM	< 200 nM	< 200 nM		
Cn1cnnc1-c1cc(F)ccc1-c1cc(-c2nc3cc(CNCC4(F)CCC4)cc(F)c3o2)nc(C2CC2)c1 [AFJ-1, [(2-{6-Cyclopropyl-4-[4-fluoro-2-(4-methyl-1,2,4-triazol-3-yl)phenyl]pyridin-2-yl}-7-fluoro-1,3-benzoxazol-5-yl)methyl][(1-fluorocyclobutyl)methyl]amine]	< 200 nM	200 to 1000 nM	< 200 nM		
CN(Cc1cc(F)c2oc(-c3cc(-c4ccc(F)cc4-c4nncn4C)cc(C4CC4)n3)nc2c1)[C@@H]1CCC[C@@H]1O [AFK-1, (1S,2R)-2-{[(2-{6-Cyclopropyl-4-[4-fluoro-2-(4-methyl-1,2,4-triazol-3-yl)phenyl]pyridin-2-yl}-7-fluoro-1,3-benzoxazol-5-yl)methyl](methyl)amino}cyclopentan-1-ol]	< 200 nM	200 to 1000 nM	< 200 nM		
Cn1cnnc1-c1cc(F)ccc1-c1cc(-c2nc3cc(CN[C@@H]4CCC[C@]4(C)O)cc(F)c3o2)nc(C2CC2)c1 [AFL-2, (1S,2R)-2-(((2-(6-Cyclopropyl-4-(4-fluoro-2-(4-methyl-4H-1,2,4-triazol-3-yl)phenyl)pyridin-2-yl)-7-fluorobenzo[d]oxazol-5-yl)methyl)amino)-1-methylcyclopentan-1-ol]		1000 to 10000 nM		200 to 1000 nM	< 200 nM
Cn1cnnc1-c1cc(F)ccc1-c1cc(-c2nc3cc(CN[C@@H]4CCC[C@@]4(C)O)cc(F)c3o2)nc(C2CC2)c1 [AFM-1, (1R,2R)-2-(((2-(6-Cyclopropyl-4-(4-fluoro-2-(4-methyl-4H-1,2,4-triazol-3-yl)phenyl)pyridin-2-yl)-7-fluorobenzo[d]oxazol-5-yl)methyl)amino)-1-methylcyclopentan-1-ol]		1000 to 10000 nM		200 to 1000 nM	< 200 nM
